Measurements reported in patent US20220220100A1 (SOLUTIA CANADA INC., priority 2019, published 2022).

How the values were obtained:
[1] = Photostability: xenon arc weathering of chromophore solutions, LCMS analysis; type: physicochemical; settings: for Ketone (%) / Minus-2HF (%) / Minus-HF (%) / Sulfone (%) / Chromophore Remaining (%): xenon arc, 82° C. bp; for Ketone (%) / Minus-2HF (%) / Minus-HF (%) / Sulfone (%): linearly interpolated to 0.5 MJ/m2 @ 340 nm; for Chromophore Remaining (%): linearly interpolated to 0.5 MJ/m2 @ 340 nm of exposure energy; for Photostability (in words): weathering experiments
In short: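 Chromophores were dissolved at 1 to 10 wt % in Rhodiasolv IRIS at 90° C, then sealed under glovebox conditions in glass cells laminated with 400 nm UV-cutoff PVB. The cells were weathered continuously in a xenon arc chamber with no dark or spray cycles. Solutions were then diluted in acetonitrile and analysed by reverse-phase LC-MS.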

[2] = Oxidation potential of ring-closed and ring-open isomers; type: physicochemical; settings: no unit printed in table (V relative to Ag/AgCl)
[3] = 10 wt %, interpolated to 0.5 MJ/m^2 of energy exposure at 340 nm
[4] = 3 wt %, interpolated to 0.5 MJ/m^2 of energy exposure at 340 nm
[5] = 1 wt %, interpolated to 0.5 MJ/m^2 of energy exposure at 340 nm

Compound	Ketone (%) ([1]; 10 wt % in Rhodiasolv IRIS)	Minus-2HF (%) ([1]; 10 wt % in Rhodiasolv IRIS)	Minus-HF (%) ([1]; 10 wt % in Rhodiasolv IRIS)	Sulfone (%) ([1]; 10 wt % in Rhodiasolv IRIS)	Chromophore Remaining (%) ([1]; 10 wt % in Rhodiasolv IRIS)	Ratio of chromophore remaining relative to S340 [1, 3]	Photostability (in words) [1]	RC [O] (oxidation potential of ring-closed isomer) [2]	RO [O] (oxidation potential of ring-open isomer) [2]	Ketone (%) ([1]; 3 wt % in Rhodiasolv IRIS)	Minus-2HF (%) ([1]; 3 wt % in Rhodiasolv IRIS)	Minus-HF (%) ([1]; 3 wt % in Rhodiasolv IRIS)	Sulfone (%) ([1]; 3 wt % in Rhodiasolv IRIS)	Chromophore Remaining (%) ([1]; 3 wt % in Rhodiasolv IRIS)	Ratio of chromophore remaining relative to S340 [1, 4]	further results
COCCCOc1cc2oc(-c3ccc(C(C)(C)C)cc3)c(C3=C(c4cc(-c5cc6c(s5)C(C)(C)CCC6(C)C)sc4-c4cc5c(s4)C(C)(C)CCC5(C)C)C(F)(F)C(F)(F)C3(F)F)c2cc1OCCCOC [Chromophore S388, 3-(2-(2,5-bis(4,4,7,7-tetramethyl-4,5,6,7-tetrahydrobenzo[b]thiophen-2-yl)thiophen-3-yl)-3,3,4,4,5,5-hexafluorocyclopent-1-en-1-yl)-2-(4-(tert-butyl)phenyl)-5,6-bis(3-methoxypropoxy)benzofuran]	0.2	0.0	0.0	0.4	97.7	1.07	high photostability	0.89	1.28	–	–	–	–	–	–	Formation of the Minus-HF degradation product (in words) [1]: prevents the Minus-HF product
CC(C)(C)c1ccc(-c2oc3cc(OCCN4CCOC4=O)c(OCCN4CCOC4=O)cc3c2C2=C(c3cc(-c4cc5c(s4)C(C)(C)CCC5(C)C)sc3-c3cc4c(s3)C(C)(C)CCC4(C)C)C(F)(F)C(F)(F)C2(F)F)cc1 [Chromophore S390, 3,3′-(((3-(2-(2,5-bis(4,4,7,7-tetramethyl-4,5,6,7-tetrahydrobenzo[b]thiophen-2-yl)thiophen-3-yl)-3,3,4,4,5,5-hexafluorocyclopent-1-en-1-yl)-2-(4-(tert-butyl)phenyl)benzofuran-5,6-diyl)bis(oxy))bis(ethane-2,1-diyl))bis(oxazolidin-2-one)]	0.0	0.0	0.0	0.0	98.8	1.08	high photostability	0.93	1.29	–	–	–	–	–	–	–
CC(=O)Oc1cc2oc(-c3ccc(C(C)(C)C)cc3)c(C3=C(c4cc(-c5cc(C(C)(C)C)cs5)sc4-c4cc(C(C)(C)C)cs4)C(F)(F)C(F)(F)C3(F)F)c2cc1OC(C)=O [Chromophore S396, 2-(4-(tert-butyl)phenyl)-3-(2-(4,4″-di-tert-butyl-[2,2′:5′,2″-terthiophen]-3′-yl)-3,3,4,4,5,5-hexafluorocyclopent-1-en-1-yl)benzofuran-5,6-diyl diacetate]	–	–	–	–	–	–	high photostability	1.18	1.48	1.0	0.0	0.0	0.0	97.9	1.07	–
COc1ccc2oc(-c3ccc(C(C)(C)C)cc3)c(C3=C(c4cc(-c5cc6c(s5)C(C)(C)CCC6(C)C)sc4-c4cc5c(s4)C(C)(C)CCC5(C)C)C(F)(F)C(F)(F)C3(F)F)c2c1 [Chromophore S400]	–	–	–	–	–	–	high photostability	1.01	1.29	0.8	1.4	0.0	0.0	96.7	1.06	–
COc1cc2oc(-c3ccc(C(C)(C)C)cc3)c(C3=C(c4cc(-c5cc6c(s5)C(C)(C)CCCC6(C)C)sc4-c4cc5c(s4)C(C)(C)CCCC5(C)C)C(F)(F)C(F)(F)C3(F)F)c2cc1OC [Chromophore S405]	–	–	–	–	–	–	high photostability	0.91	1.28	–	–	–	–	–	–	Ketone (%) ([1]; 1 wt % in Rhodiasolv IRIS): 2.9%; Minus-2HF (%) ([1]; 1 wt % in Rhodiasolv IRIS): 0.0%; Minus-HF (%) ([1]; 1 wt % in Rhodiasolv IRIS): 0.0%; Sulfone (%) ([1]; 1 wt % in Rhodiasolv IRIS): 0.0%; Chromophore Remaining (%) ([1]; 1 wt % in Rhodiasolv IRIS): 97.1%; Ratio of chromophore remaining relative to S340 [1, 5]: 1.07; Sum of degradation product percentages relative to the sum of degradation product percentages for S340 [1, 5]: 0.33
